Results as given in ChEMBL document CHEMBL3585340, “Potent Apoptotic Response Induced by Chloroacetamidine Anthrathiophenediones in Bladder Cancer Cells” (J Med Chem, 2015).
Activity calls are given as the source filed them. The calls are words filed in the database; no cut-off is given here.

Experiments:
[1] = Binding affinity to 5' FAM/3' TAMRA labeled HRAS2 G-quadruplex DNA (unknown origin) by FRET analysis
[2] = Cellular uptake in human T24 cells at 1 to 5 uM after 4 hrs by FACS analysis; type: ADME, cell-based; conditions: t-24, 4 h
[3] = Binding affinity to 5' FAM/3' TAMRA labeled HRAS2 G-quadruplex DNA (unknown origin) assessed as change in melting temperature by FRET analysis
[4] = Cytotoxicity against human T24 cells harboring HRAS mutant assessed as reduction of metabolic activity after 72 hrs by resazurin assay; type: functional, cell-based; conditions: T-24, 72 h
[5] = Cellular uptake in cytoplasm of human T24 cells at 5 uM after 4 hrs by confocal microscopic analysis; type: ADME, cell-based; conditions: t-24, 4 h
[6] = Cellular uptake in nucleus of human T24 cells at 5 uM after 4 hrs by confocal microscopic analysis; type: ADME, cell-based; conditions: t-24, 4 h
[7] = Binding affinity to 5' FAM/3' TAMRA labeled HRAS1 G-quadruplex DNA (unknown origin) assessed as change in melting temperature by FRET analysis
HEK293 = experiment: Cytotoxicity against HEK293 cells harboring wild type HRAS assessed as reduction of metabolic activity after 72 hrs by resazurin assay; type: cell-based; conditions: Homo sapiens, HEK293, 72 h
[8] = Cellular uptake in human T24 cells at 5 uM after 4 hrs by FACS analysis relative to HEK293 cells; type: ADME, cell-based; conditions: hek293, 4 h
[9] = Binding affinity to 5' FAM/3' TAMRA labeled HRAS1 G-quadruplex DNA (unknown origin) by FRET analysis
[10] = Cellular uptake in human T24 cells at 5 uM at 4 degC after 4 hrs by FACS analysis; type: ADME, cell-based; conditions: t-24, 4 h
[11] = Cellular uptake in human T24 cells at 5 uM at 37 degC after 4 hrs by FACS analysis; type: ADME, cell-based; conditions: t-24, 4 h
[12] = Cell cycle arrest in human T24 cells assessed as accumulation at G2 phase at 5 uM after 48 to 72 hrs by propidium iodide staining-based FACS analysis; type: functional; conditions: T-24
T-24 [13] = experiment: Induction of apoptosis in human T24 cells assessed as activation of caspase 3/7 at 2.5 to 5 uM measured after 18 to 24 hrs by Apo-ONE assay relative to control; type: functional
T-24 [14] = experiment: Induction of apoptosis in human T24 cells assessed as PARP-1 cleavage at 2.5 uM measured at 48 hrs by Western blot analysis relative to control; type: functional
T-24 [15] = experiment: Cytotoxicity against human T24 cells assessed as reduction of colony formation at 1 uM after 7 days by methylene blue staining-based assay; type: functional, cell-based
T-24 [16] = experiment: Inhibition of HRAS mRNA expression in human T24 cells at 5 uM after 6 to 24 hrs by RT-qPCR analysis; type: functional, cell-based
[17] = Downregulation of p21RAS protein level in human T24 cells at 5 uM after 48 hrs by Western blot analysis; type: functional, cell-based; conditions: T-24
T-24 [18] = experiment: Induction of apoptosis in human T24 cells at 2.5 uM after 24 hrs by annexin V-FITC/propidium iodide staining-based FACS analysis (13 +/- 5%); type: functional
T-24 [19] = experiment: Induction of reactive oxygen species generation in human T24 cells at 1 to 5 uM after 24 hrs relative to control; type: functional, cell-based
[20] = Downregulation of cyclin D1 level in human T24 cells assessed as remaining protein level at 2.5 uM after 48 hrs by Western blot analysis; type: functional, cell-based; conditions: T-24
[21] = Binding affinity to 5' FAM/3' TAMRA labeled HRAS2 G-quadruplex DNA (unknown origin) assessed as change in melting temperature at 5 equiv of compound (r = 5) by FRET analysis (reference value: 68.1 degreeC)
[22] = Cell cycle arrest in human T24 cells assessed as accumulation at G2 phase at 5 uM after 48 hrs by propidium iodide staining-based FACS analysis (reference value: 18.5%); type: functional; conditions: T-24
T-24 [23] = experiment: Inhibition of HRAS mRNA expression in human T24 cells assessed as remaining mRNA level at 5 uM after 24 hrs by RT-qPCR analysis relative to beta2-microglobulin mRNA expression; type: functional
[24] = Cell cycle arrest in human T24 cells assessed as accumulation at G2 phase at 5 uM measured at 72 hrs by propidium iodide staining-based FACS analysis (reference value: 17.7%); type: functional; conditions: T-24
[25] = Cellular uptake in human T24 cells at 5 uM after 4 hrs by FACS analysis in presence of dynasore; type: ADME, cell-based; conditions: t-24, 4 h
[26] = Binding affinity to 5' FAM/3' TAMRA labeled HRAS2 G-quadruplex DNA (unknown origin) assessed as change in melting temperature at 5 equiv of compound by FRET analysis in presence of 10 fold excess duplex DNA (reference value: 68.1 degreeC)
[27] = Cell cycle arrest in human T24 cells assessed as accumulation at G1 phase at 5 uM after 48 hrs by propidium iodide staining-based FACS analysis (reference value: 52.4%); type: functional; conditions: T-24
[28] = Downregulation of p21RAS protein level in human T24 cells assessed as remaining protein level at 5 uM after 48 hrs by Western blot analysis relative to beta-actin protein expression; type: functional, cell-based; conditions: T-24
T-24 [29] = experiment: Inhibition of HRAS mRNA expression in human T24 cells assessed as remaining mRNA level at 5 uM after 6 hrs by RT-qPCR analysis relative to beta2-microglobulin mRNA expression; type: functional
T-24 [30] = experiment: Binding affinity to mutant HRAS Mut-A plasmid (unknown origin) transfected in human T24 cells at 100 to 200 nM pretreated with cells followed by transfection measured after 48 hrs by dual luciferase reporter gene assay; type: cell-based
[31] = Antitumor activity against human T24 cells xenografted in nude mouse assessed as mouse median survival day at 1.7 mg/kg administered intratumorally on day 1, 8, 15, 22 (reference value: 32 days); type: functional, T-24
T-24 [32] = experiment: Antitumor activity against human T24 cells xenografted in nude mouse assessed as tumor growth inhibition at 1.7 mg/kg administered intratumorally on day 1, 8, 15, 22 measured every 2 to 3 days up to 44 days; type: functional, organism-based
[33] = Binding affinity to 5' FAM/3' TAMRA labeled HRAS2 G-quadruplex DNA (unknown origin) assessed as change in melting temperature at 10 equiv of compound by FRET analysis (reference value: 67.2 degreeC)
T-24 [34] = experiment: Binding affinity to wild type HRAS G-quadruplex DNA (unknown origin) transfected in human T24 cells assessed as remaining expression ratio of firefly luciferase to renila luciferase reporter gene at 100 to 200 nM pretreated with cells followed by transfection measured after 48 hrs; type: cell-based
T-24 [35] = experiment: Binding affinity to mutant HRAS Mut-B plasmid (unknown origin) transfected in human T24 cells at 100 to 200 nM pretreated with cells followed by transfection measured after 48 hrs by dual luciferase reporter gene assay; type: cell-based
[36] = Antitumor activity against human T24 cells xenografted in nude mouse assessed as increase in mouse median survival day at 1.7 mg/kg administered intratumorally on day 1, 8, 15, 22 relative to control; type: functional, T-24
[37] = Downregulation of p21RAS protein level in human T24 cells assessed as remaining protein level at 2.5 to 5 uM after 48 hrs by Western blot analysis relative to beta-actin protein expression; type: functional, cell-based; conditions: T-24

| SMILES | Kd [1] | Drug uptake [2] | ΔTm [3] | IC50 [4] | Drug uptake [5] | Drug uptake [6] | ΔTm [7] | IC50 (HEK293) | fold change (FC) [8] | Kd [9] | Drug uptake [10] | Drug uptake [11] | Activity (T-24 [14]) | Activity (T-24 [15]) | Activity (T-24 [18]) | other results |
| --- | --- | --- | --- | --- | --- | --- | --- | --- | --- | --- | --- | --- | --- | --- | --- | --- |
| N=C(CCl)NCCCNc1c2c(c(NCCCNC(=N)CCl)c3sccc13)C(=O)c1ccccc1C2=O | 0.276 µM | Active | 7 °C | 6.8 µM | Active | Active | 9 °C | 19.4 µM | 2 | 0.26 µM | – | – | – | – | – | – |
| N=C(CCl)NCCCNc1c2c(c(NCCNC(=N)CCl)c3ccsc13)C(=O)c1ccccc1C2=O | 0.221 µM | Active | 7 °C | 2.9 µM | Active | Active | 9 °C | 10.1 µM | 2 | 0.179 µM | Not Active | Active | – | – | – | – |
| N=C(N)NCCNc1c2c(c(NCCNC(=N)N)c3sccc13)C(=O)c1ccccc1C2=O | – | Active | – | 4.4 µM | – | – | – | > 30 µM | – | – | – | – | inactive | inactive | 13% | Activity [12]: inactive; Activity (T-24 [13]): inactive; inhibition (T-24 [16]): inactive; Activity [17]: Active |
| N=C(N)NCCCCNc1c2c(c(NCCCCNC(=N)N)c3sccc13)C(=O)c1ccccc1C2=O | – | Active | – | – | – | – | – | > 30 µM | – | – | – | – | inactive | inactive | 13% | Activity [12]: inactive; inhibition (T-24 [16]): inactive; Activity [17]: Active |
| N=C(CCl)NCCCNc1c2c(c(NCCNC(=N)CCl)c3sccc13)C(=O)c1ccccc1C2=O | 0.168 µM | Active | 7 °C | 3 µM | Active | Active | 9 °C | 12.6 µM | 2 | 0.178 µM | Not Active | Active | 80% | Active | 81% | Activity (T-24 [19]): inactive; Activity [20]: < 10%; Tm [21]: 75.8 °C; Activity [22]: 66%; Activity (T-24 [23]): 24%; fold change (FC) (T-24 [13]): 15; Activity [24]: 83%; Drug uptake [25]: Not Active; Tm [26]: 75.8 °C; Activity [27]: 28.9%; Activity [28]: 40%; Activity (T-24 [29]): 45% |
| N=C(CCl)NCCNc1c2c(c(NCCNC(=N)CCl)c3sccc13)C(=O)c1ccccc1C2=O | 0.317 µM | Active | 7 °C | 2.7 µM | Active | Active | 9 °C | 6.4 µM | 2 | 0.611 µM | Not Active | Active | 80% | Active | 88% | Activity (T-24 [19]): inactive; Activity [20]: < 10%; Tm [21]: 75.6 °C; Activity [22]: 72.2%; Activity (T-24 [23]): 34%; Activity (T-24 [30]): inactive; MSD [31]: 54 days; fold change (FC) (T-24 [13]): 15; Activity [24]: 44.7%; TGI (T-24 [32]): Active; Tm [33]: 78.5 °C; Drug uptake [25]: Not Active; Activity (T-24 [34]): 40%; Tm [26]: 75.6 °C; Activity (T-24 [35]): inactive; Activity [36]: 70%; Activity [27]: 12.2%; Activity [37]: < 4%; Activity (T-24 [29]): 35% |
| N=C(CCl)NCCCCNc1c2c(c(NCCCCNC(=N)CCl)c3sccc13)C(=O)c1ccccc1C2=O | 0.215 µM | Active | 7 °C | 11.5 µM | Active | Active | 9 °C | > 30 µM | 2 | 0.231 µM | – | – | – | – | – | – |
